In ChEMBL document CHEMBL3436046, “Predictive model for L-type channel inhibition: multichannel block in QT prolongation risk assessment” (J Appl Toxicol, 2012):

Legend:
[1] = molecular target: T1, Voltage-dependent L-type calcium channel subunit alpha-1C (Cavia porcellus, UniProt O35505); experiment: (§1) Inhibition of L-type calcium channel measured using whole-cell patch clamp in guinea pig ventricular myocytes; assay type: functional, cell-based, Heart, Ventricular myocyte; design: ca sol conc 1 mM, temp room
[2] = molecular target: T1, Voltage-dependent L-type calcium channel subunit alpha-1C; experiment: as §1; assay type: functional, cell-based, Heart, Ventricular myocyte; design: ca sol conc 1 mM, temp room; remark: listed apart in the source
[3] = molecular target: T2, Voltage-dependent L-type calcium channel subunit alpha-1C (Homo sapiens, UniProt Q13936); experiment: (§2) Inhibition of L-type calcium channel measured using […] kidney cells heterologically expressing alpha-1C subunit; assay type: functional, cell-based, HEK293; design: ca sol conc 0 mM, temp 21-24 C
[4] = molecular target: T3, Voltage-dependent L-type calcium channel subunit alpha-1C (Rattus norvegicus, UniProt P22002); experiment: (§3) Inhibition of L-type calcium channel measured using whole-cell patch clamp in rat ventricular myocytes; assay type: functional, cell-based, Heart, Ventricular myocyte; design: ca sol conc 1 mM, temp 21-23 C
[5] = molecular target: T3, Voltage-dependent L-type calcium channel subunit alpha-1C; experiment: as §3; assay type: functional, cell-based, Heart, Ventricular myocyte; design: ca sol conc 1 mM, temp 21-23 C; remark: listed apart in the source
[6] = molecular target: T1, Voltage-dependent L-type calcium channel subunit alpha-1C; experiment: as §1; assay type: functional, cell-based, Heart, Ventricular myocyte; design: ca sol conc 0 mM, temp 20-25 C
[7] = molecular target: T3, Voltage-dependent L-type calcium channel subunit alpha-1C; experiment: as §3; assay type: functional, cell-based, Heart, Ventricular myocyte; design: ca sol conc 1 mM, temp 20-24 C
[8] = molecular target: T1, Voltage-dependent L-type calcium channel subunit alpha-1C; experiment: as §1; assay type: functional, cell-based, Heart, Ventricular myocyte; design: ca sol conc 1.8 mM, temp 36 C
[9] = molecular target: T1, Voltage-dependent L-type calcium channel subunit alpha-1C; experiment: as §1; assay type: functional, cell-based, Heart, Ventricular myocyte; design: ca sol conc 0 mM, temp 36 C
[10] = molecular target: T3, Voltage-dependent L-type calcium channel subunit alpha-1C; experiment: as §3; assay type: functional, cell-based, Heart, Ventricular myocyte; design: ca sol conc 1.8 mM, temp 21-23 C
[11] = molecular target: T1, Voltage-dependent L-type calcium channel subunit alpha-1C; experiment: as §1; assay type: functional, cell-based, Heart, Ventricular myocyte; design: ca sol conc 2 mM, temp 22-26 C
[12] = molecular target: T2, Voltage-dependent L-type calcium channel subunit alpha-1C; experiment: as §2; assay type: functional, cell-based, HEK293; design: ca sol conc 0 mM, temp 20-25 C
[13] = molecular target: T2, Voltage-dependent L-type calcium channel subunit alpha-1C; experiment: as §2; assay type: functional, cell-based, HEK293; design: ca sol conc 0 mM, temp 21-24 C; remark: listed apart in the source
[14] = molecular target: T1, Voltage-dependent L-type calcium channel subunit alpha-1C; experiment: as §1; assay type: functional, cell-based, Heart, Ventricular myocyte; design: ca sol conc 1.8 mM, temp 20-25 C
[15] = molecular target: T2, Voltage-dependent L-type calcium channel subunit alpha-1C; experiment: as §2; assay type: functional, cell-based, HEK293; design: ca sol conc 0 mM, temp room
[16] = molecular target: T2, Voltage-dependent L-type calcium channel subunit alpha-1C; experiment: as §2; assay type: functional, cell-based, HEK293; design: ca sol conc 0 mM, temp room; remark: listed apart in the source
[17] = molecular target: T2, Voltage-dependent L-type calcium channel subunit alpha-1C; experiment: (§4) Inhibition of L-type calcium channel measured using 2-electrode voltage-clamp in Xenopus oocyte heterologically expressing alpha-1C subunit; assay type: functional, cell-based; design: ca sol conc 0 mM, temp room
[18] = molecular target: T2, Voltage-dependent L-type calcium channel subunit alpha-1C; experiment: as §4; assay type: functional, cell-based; design: ca sol conc 0 mM, temp room; remark: listed apart in the source
[19] = molecular target: T3, Voltage-dependent L-type calcium channel subunit alpha-1C; experiment: as §3; assay type: functional, cell-based, Heart, Ventricular myocyte; design: ca sol conc 1 mM, temp 1 C
[20] = molecular target: T1, Voltage-dependent L-type calcium channel subunit alpha-1C; experiment: as §1; assay type: functional, cell-based, Heart, Ventricular myocyte; design: ca sol conc 2 mM, temp 35.5-36.5 C
[21] = molecular target: T1, Voltage-dependent L-type calcium channel subunit alpha-1C; experiment: as §1
[22] = molecular target: T1, Voltage-dependent L-type calcium channel subunit alpha-1C; experiment: as §1; assay type: functional, cell-based, Heart, Ventricular myocyte; design: ca sol conc 1.8 mM, temp 36-37 C
[23] = molecular target: T3, Voltage-dependent L-type calcium channel subunit alpha-1C; experiment: as §3; assay type: functional, cell-based, Heart, Ventricular myocyte; design: ca sol conc 1.8 mM, temp 22-24 C
[24] = molecular target: T1, Voltage-dependent L-type calcium channel subunit alpha-1C; experiment: as §1; assay type: functional, cell-based, Heart, Ventricular myocyte; design: ca sol conc 2.5 mM, temp room

T1 sequence (O35505 whole entry): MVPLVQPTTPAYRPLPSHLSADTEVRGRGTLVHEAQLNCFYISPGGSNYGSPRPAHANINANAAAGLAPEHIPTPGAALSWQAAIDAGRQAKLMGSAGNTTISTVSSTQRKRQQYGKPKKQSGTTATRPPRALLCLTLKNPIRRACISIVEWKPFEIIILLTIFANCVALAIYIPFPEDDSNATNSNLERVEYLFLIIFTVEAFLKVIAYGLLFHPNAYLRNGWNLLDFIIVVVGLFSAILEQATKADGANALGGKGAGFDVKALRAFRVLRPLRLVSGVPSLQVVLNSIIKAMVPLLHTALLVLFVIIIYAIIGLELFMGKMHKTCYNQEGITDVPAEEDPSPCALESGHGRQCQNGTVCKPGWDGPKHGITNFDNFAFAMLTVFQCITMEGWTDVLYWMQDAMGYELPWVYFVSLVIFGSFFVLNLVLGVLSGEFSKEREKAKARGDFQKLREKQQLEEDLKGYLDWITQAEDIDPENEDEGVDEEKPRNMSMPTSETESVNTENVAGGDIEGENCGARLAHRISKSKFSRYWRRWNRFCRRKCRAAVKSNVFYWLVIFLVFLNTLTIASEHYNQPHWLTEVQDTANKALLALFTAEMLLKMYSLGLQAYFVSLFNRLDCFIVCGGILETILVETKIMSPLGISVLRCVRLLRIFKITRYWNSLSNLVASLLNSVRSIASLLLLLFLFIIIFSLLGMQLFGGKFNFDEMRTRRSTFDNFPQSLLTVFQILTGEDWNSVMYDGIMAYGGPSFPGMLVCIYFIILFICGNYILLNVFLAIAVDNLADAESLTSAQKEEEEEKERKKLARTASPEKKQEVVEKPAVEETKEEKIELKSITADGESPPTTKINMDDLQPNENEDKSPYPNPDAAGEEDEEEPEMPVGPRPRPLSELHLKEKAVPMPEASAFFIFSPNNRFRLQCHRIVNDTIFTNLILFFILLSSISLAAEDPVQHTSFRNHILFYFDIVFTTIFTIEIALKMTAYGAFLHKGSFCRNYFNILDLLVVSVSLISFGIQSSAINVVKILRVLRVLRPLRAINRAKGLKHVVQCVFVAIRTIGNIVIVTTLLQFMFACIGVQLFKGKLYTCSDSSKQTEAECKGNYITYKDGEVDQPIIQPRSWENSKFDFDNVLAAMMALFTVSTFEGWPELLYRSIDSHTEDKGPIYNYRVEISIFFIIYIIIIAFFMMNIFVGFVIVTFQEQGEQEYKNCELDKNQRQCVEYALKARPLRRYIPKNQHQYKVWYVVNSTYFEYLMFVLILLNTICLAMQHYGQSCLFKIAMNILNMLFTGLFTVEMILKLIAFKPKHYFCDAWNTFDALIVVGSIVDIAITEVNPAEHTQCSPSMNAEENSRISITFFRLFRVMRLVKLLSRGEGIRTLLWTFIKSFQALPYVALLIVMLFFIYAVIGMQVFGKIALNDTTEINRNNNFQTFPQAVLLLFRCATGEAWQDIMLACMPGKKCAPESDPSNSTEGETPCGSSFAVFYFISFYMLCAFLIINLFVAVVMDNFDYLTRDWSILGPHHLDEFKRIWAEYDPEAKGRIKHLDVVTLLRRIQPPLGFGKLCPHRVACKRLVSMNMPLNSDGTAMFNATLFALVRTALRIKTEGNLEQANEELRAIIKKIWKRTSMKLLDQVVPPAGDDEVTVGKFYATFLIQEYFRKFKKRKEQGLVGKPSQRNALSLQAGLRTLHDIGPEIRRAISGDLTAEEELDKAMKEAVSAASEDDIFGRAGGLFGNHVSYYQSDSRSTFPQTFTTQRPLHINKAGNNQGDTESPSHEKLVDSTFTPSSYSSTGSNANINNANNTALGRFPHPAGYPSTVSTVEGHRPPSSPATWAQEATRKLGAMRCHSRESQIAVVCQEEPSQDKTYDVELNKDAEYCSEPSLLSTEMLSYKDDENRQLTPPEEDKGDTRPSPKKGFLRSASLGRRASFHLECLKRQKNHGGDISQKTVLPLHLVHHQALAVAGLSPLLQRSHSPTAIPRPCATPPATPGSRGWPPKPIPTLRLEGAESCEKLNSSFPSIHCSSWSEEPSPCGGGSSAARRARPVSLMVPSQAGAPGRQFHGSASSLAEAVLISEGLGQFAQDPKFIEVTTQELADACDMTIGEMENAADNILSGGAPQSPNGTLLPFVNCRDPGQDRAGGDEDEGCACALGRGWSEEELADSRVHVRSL
T2 sequence (Q13936 whole entry): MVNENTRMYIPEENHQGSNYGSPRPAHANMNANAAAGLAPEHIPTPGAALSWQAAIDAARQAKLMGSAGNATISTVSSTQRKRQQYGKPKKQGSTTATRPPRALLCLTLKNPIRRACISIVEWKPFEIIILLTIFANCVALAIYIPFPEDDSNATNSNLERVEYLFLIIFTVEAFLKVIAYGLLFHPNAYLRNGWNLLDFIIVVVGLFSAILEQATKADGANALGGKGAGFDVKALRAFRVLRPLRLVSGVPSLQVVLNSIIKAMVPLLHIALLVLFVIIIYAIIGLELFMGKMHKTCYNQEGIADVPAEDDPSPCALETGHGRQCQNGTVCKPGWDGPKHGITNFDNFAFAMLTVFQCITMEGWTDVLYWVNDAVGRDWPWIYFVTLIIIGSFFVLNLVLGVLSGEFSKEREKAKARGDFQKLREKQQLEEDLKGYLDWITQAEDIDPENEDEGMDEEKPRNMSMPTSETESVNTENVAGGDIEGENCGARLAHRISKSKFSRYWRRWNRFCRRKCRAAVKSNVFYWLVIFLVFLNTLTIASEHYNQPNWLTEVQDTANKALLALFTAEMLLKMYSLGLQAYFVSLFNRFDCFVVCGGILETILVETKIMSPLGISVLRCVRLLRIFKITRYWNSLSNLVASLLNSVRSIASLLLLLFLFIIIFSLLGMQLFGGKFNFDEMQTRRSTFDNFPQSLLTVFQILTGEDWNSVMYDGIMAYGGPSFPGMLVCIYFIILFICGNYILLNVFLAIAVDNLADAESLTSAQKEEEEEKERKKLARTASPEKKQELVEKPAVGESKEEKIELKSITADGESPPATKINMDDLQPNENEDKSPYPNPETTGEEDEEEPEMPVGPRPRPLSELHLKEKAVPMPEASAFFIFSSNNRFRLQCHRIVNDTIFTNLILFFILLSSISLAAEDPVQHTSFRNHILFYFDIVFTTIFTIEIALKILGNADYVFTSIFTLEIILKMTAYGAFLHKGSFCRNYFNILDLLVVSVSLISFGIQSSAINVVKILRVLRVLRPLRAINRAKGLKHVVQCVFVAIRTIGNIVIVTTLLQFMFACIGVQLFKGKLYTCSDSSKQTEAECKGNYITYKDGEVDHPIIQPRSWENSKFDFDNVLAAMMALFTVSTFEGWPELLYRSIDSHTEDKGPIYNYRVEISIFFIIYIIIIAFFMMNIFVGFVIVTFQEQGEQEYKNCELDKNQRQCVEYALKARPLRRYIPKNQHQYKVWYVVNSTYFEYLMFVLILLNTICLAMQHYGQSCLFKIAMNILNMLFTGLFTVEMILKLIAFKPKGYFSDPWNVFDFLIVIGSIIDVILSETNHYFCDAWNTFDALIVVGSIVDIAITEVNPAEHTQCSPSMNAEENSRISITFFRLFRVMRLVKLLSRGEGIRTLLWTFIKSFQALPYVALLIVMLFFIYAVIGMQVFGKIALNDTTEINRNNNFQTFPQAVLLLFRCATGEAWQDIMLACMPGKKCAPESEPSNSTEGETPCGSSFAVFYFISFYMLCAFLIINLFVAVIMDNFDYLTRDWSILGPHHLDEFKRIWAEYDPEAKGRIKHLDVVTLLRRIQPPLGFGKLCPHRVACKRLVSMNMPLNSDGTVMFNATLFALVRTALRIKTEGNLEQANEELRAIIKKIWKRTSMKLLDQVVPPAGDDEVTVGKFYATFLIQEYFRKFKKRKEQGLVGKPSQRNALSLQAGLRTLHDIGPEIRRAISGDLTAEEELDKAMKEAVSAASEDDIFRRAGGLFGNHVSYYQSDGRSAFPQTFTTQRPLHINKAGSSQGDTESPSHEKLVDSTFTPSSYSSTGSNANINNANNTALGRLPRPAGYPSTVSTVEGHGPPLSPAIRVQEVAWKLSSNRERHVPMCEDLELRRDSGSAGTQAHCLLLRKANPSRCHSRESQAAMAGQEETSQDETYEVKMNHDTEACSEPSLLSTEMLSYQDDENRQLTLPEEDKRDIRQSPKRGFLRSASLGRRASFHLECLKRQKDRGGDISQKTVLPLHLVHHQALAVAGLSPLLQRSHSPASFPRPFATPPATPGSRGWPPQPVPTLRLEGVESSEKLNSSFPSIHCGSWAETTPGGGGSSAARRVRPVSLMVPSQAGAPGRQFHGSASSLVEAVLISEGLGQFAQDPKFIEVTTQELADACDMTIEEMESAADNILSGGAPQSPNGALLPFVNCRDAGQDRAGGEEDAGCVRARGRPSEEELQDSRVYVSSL

CCCC(=O)OCOC(=O)C1=C(C)NC(C)=C(C(=O)OC)C1c1cccc(Cl)c1Cl (stereo not drawn) [CLEVIDIPINE]
IC50 [1]: 0.0788 µM | IC50 [2]: 0.0071 µM

CC(C)Cn1c(=O)n(C)c(=O)c2[nH]cnc21 [ISOBUTYLMETHYLXANTHINE]
IC50 [3]: 466 µM

COc1ccc(CCN(C)CCCOc2ccc(S(=O)(=O)c3c(C(C)C)cn4ccccc34)cc2)cc1OC [FANTOFARONE]
IC50 [4]: 9 µM | IC50 [5]: 0.022 µM

COCCOC(=O)C1=C(C)NC(C)=C(C(=O)OC(C)C)C1c1cccc([N+](=O)[O-])c1 (stereo not drawn) [NIMODIPINE]
IC50 [6]: 0.3 µM

CNCCCN1c2ccccc2CCc2ccccc21 [DESIPRAMINE]
IC50 [7]: 11.7 µM

CCN(CC)CC#CCOC(=O)C(O)(c1ccccc1)C1CCCCC1 (stereo not drawn) [OXYBUTYNIN]
IC50 [8]: 16.1 µM

Cc1cccc(C)c1N(CCCc1cccnc1)C(=O)[C@@H](C)N
IC50 [9]: 55 µM

Cc1c(C)c2c(c(C)c1O)CCC(C)(COc1ccc(CC3SC(=O)NC3=O)cc1)O2 (stereo not drawn) [TROGLITAZONE]
IC50 [10]: 9.5 µM

CC(N)CCCC(C)(C)O (stereo not drawn) [HEPTAMINOL]
IC50 [11]: 15.3 µM

CN(C)CCCN1c2ccccc2CCc2ccc(Cl)cc21 [CLOMIPRAMINE]
IC50 [7]: 11.6 µM

COc1ccc(CCN(C)CCCC(C#N)(c2cc(OC)c(OC)c(OC)c2)C(C)C)cc1OC (stereo not drawn) [GALLOPAMIL]
IC50 [12]: 0.017 µM

C[C@]12CC[C@H]3[C@@H](CCC4=CC(=O)CC[C@@]43C)[C@@H]1CC[C@@H]2O [TESTOSTERONE]
IC50 [13]: 0.0384 µM | IC50 [3]: 0.034 µM

Fc1ccc(C(OCCN2CCN(CCCc3ccccc3)CC2)c2ccc(F)cc2)cc1 [VANOXERINE]
IC50 [14]: 0.32 µM

FC(F)(F)C(Cl)Br (stereo not drawn) [HALOTHANE]
IC50 [15]: 1800 µM | IC50 [16]: 14500 µM

COC(=O)C1=C(C)NC(C)=C(C(=O)OC2CCCN(Cc3ccccc3)C2)C1c1cccc([N+](=O)[O-])c1 (stereo not drawn) [BENIDIPINE]
IC50 [17]: 4.9 µM | IC50 [18]: 13.8 µM

CC[C@H](CO)Nc1nc(NCc2ccccc2)c2ncn(C(C)C)c2n1 [SELICICLIB]
IC50 [15]: 23.4 µM

COc1ccc(C(C)=O)c(O)c1 [PAEONOL]
IC50 [19]: 561 µM

CN1CCCC(n2nc(Cc3ccc(Cl)cc3)c3ccccc3c2=O)CC1 (stereo not drawn) [AZELASTINE]
IC50 [20]: 20.2 µM

CN(C)CCN1C(=O)c2ccccc2N(C)c2ccccc21 [DIBENZEPIN]
IC50 [7]: 364 µM

CCOC(=O)C1=C(COCCN)NC(C)=C(C(=O)OC)C1c1ccccc1Cl (stereo not drawn) [AMLODIPINE]
IC50 [21]: 0.57 µM

CCCC(=O)N1CCCN(c2nc(N)c3cc(OC)c(OC)cc3n2)CC1 [BUNAZOSIN]
IC50 [22]: 60 µM

O=c1c(-c2ccc(O)cc2)coc2cc(O)cc(O)c12 [GENISTEIN]
IC50 [23]: 11 µM | IC50 [24]: 20 µM
